From the NIST ThermoML archive (doi:10.1016/j.jct.2013.01.008)
Numbers after ± are expanded uncertainties.

Experiment: mn = molality of the nth substance listed, in mol/kg
Conditions: 101 kPa, Liquid; for mass density: Pycnometric method; for viscosity: Capillary tube (Ostwald / Ubbelohde) method

A mass density (293.15 K, m1 = 0.025) of 999.31 ± 0.29 kg/m3, a mass density (293.15 K, m1 = 0.05) of 1000.36 ± 0.29 kg/m3 and a mass density (293.15 K, m1 = 0.075) of 1001.39 ± 0.29 kg/m3 were found for `C[C@@H](O)[C@H](N)C(=O)O` [L-threonine] + O in this work. For the same compound, the mass density (293.15 K, m1 = 0.0999) was 1002.41 ± 0.29 kg/m3, the mass density (293.15 K, m1 = 0.1249) was 1003.41 ± 0.29 kg/m3 and the mass density (293.15 K, m1 = 0.15) was 1004.39 ± 0.29 kg/m3. It also gave a mass density (293.15 K, m1 = 0.175) of 1005.36 ± 0.29 kg/m3, a mass density (293.15 K, m1 = 0.2) of 1006.31 ± 0.29 kg/m3 and a viscosity (298.15 K, m1 = 0.025) of 0.8981 ± 0.0082 mPa·s. It also gave a viscosity (298.15 K, m1 = 0.05) of 0.9057 ± 0.0082 mPa·s, a viscosity (298.15 K, m1 = 0.075) of 0.9134 ± 0.0083 mPa·s and a viscosity (298.15 K, m1 = 0.0999) of 0.9211 ± 0.0083 mPa·s. For the same compound, the viscosity (298.15 K, m1 = 0.1249) was 0.9286 ± 0.0084 mPa·s, the viscosity (298.15 K, m1 = 0.15) was 0.936 ± 0.0084 mPa·s and the viscosity (298.15 K, m1 = 0.175) was 0.9434 ± 0.0084 mPa·s. It also gave a viscosity (298.15 K, m1 = 0.2) of 0.9511 ± 0.0085 mPa·s, a mass density (298.15 K, m1 = 0.025) of 998.14 ± 0.31 kg/m3 and a mass density (298.15 K, m1 = 0.05) of 999.18 ± 0.31 kg/m3. For the same compound, the mass density (298.15 K, m1 = 0.075) was 1000.22 ± 0.31 kg/m3, the mass density (298.15 K, m1 = 0.0999) was 1001.23 ± 0.31 kg/m3 and the mass density (298.15 K, m1 = 0.1249) was 1002.23 ± 0.31 kg/m3. For the same compound, the mass density (298.15 K, m1 = 0.15) was 1003.21 ± 0.31 kg/m3, the mass density (298.15 K, m1 = 0.175) was 1004.18 ± 0.31 kg/m3 and the mass density (298.15 K, m1 = 0.2) was 1005.12 ± 0.31 kg/m3. The viscosity (303.15 K, m1 = 0.025) was 0.8051 ± 0.0075 mPa·s, the viscosity (303.15 K, m1 = 0.05) was 0.8128 ± 0.0075 mPa·s and the viscosity (303.15 K, m1 = 0.075) was 0.8205 ± 0.0076 mPa·s. It also gave a viscosity (303.15 K, m1 = 0.0999) of 0.828 ± 0.0076 mPa·s, a viscosity (303.15 K, m1 = 0.1249) of 0.8358 ± 0.0077 mPa·s and a viscosity (303.15 K, m1 = 0.15) of 0.8434 ± 0.0077 mPa·s. It also gave a viscosity (303.15 K, m1 = 0.175) of 0.851 ± 0.0077 mPa·s, a viscosity (303.15 K, m1 = 0.2) of 0.8584 ± 0.0078 mPa·s and a mass density (303.15 K, m1 = 0.025) of 996.75 ± 0.33 kg/m3. For the same compound, the mass density (303.15 K, m1 = 0.05) was 997.8 ± 0.33 kg/m3, the mass density (303.15 K, m1 = 0.075) was 998.83 ± 0.33 kg/m3 and the mass density (303.15 K, m1 = 0.0999) was 999.84 ± 0.33 kg/m3. The mass density (303.15 K, m1 = 0.1249) was 1000.83 ± 0.33 kg/m3, the mass density (303.15 K, m1 = 0.15) was 1001.83 ± 0.33 kg/m3 and the mass density (303.15 K, m1 = 0.175) was 1002.79 ± 0.33 kg/m3. It also gave a mass density (303.15 K, m1 = 0.2) of 1003.74 ± 0.33 kg/m3, a viscosity (308.15 K, m1 = 0.025) of 0.7266 ± 0.0067 mPa·s and a viscosity (308.15 K, m1 = 0.05) of 0.7344 ± 0.0068 mPa·s. The viscosity (308.15 K, m1 = 0.075) was 0.7421 ± 0.0068 mPa·s, the viscosity (308.15 K, m1 = 0.0999) was 0.7496 ± 0.0069 mPa·s and the viscosity (308.15 K, m1 = 0.1249) was 0.7571 ± 0.0069 mPa·s. The viscosity (308.15 K, m1 = 0.15) was 0.7645 ± 0.007 mPa·s, the viscosity (308.15 K, m1 = 0.175) was 0.7719 ± 0.007 mPa·s and the viscosity (308.15 K, m1 = 0.2) was 0.7792 ± 0.0071 mPa·s. The mass density (308.15 K, m1 = 0.025) was 995.14 ± 0.36 kg/m3, the mass density (308.15 K, m1 = 0.05) was 996.19 ± 0.36 kg/m3 and the mass density (308.15 K, m1 = 0.075) was 997.23 ± 0.36 kg/m3. For the same compound, the mass density (308.15 K, m1 = 0.0999) was 998.24 ± 0.36 kg/m3, the mass density (308.15 K, m1 = 0.1249) was 999.24 ± 0.36 kg/m3 and the mass density (308.15 K, m1 = 0.15) was 1000.23 ± 0.36 kg/m3. The mass density (308.15 K, m1 = 0.175) was 1001.2 ± 0.36 kg/m3, the mass density (308.15 K, m1 = 0.2) was 1002.15 ± 0.36 kg/m3 and the viscosity (313.15 K, m1 = 0.025) was 0.66 ± 0.0061 mPa·s. For the same compound, the viscosity (313.15 K, m1 = 0.05) was 0.6678 ± 0.0062 mPa·s, the viscosity (313.15 K, m1 = 0.075) was 0.6754 ± 0.0062 mPa·s and the viscosity (313.15 K, m1 = 0.0999) was 0.6828 ± 0.0063 mPa·s. For the same compound, the viscosity (313.15 K, m1 = 0.1249) was 0.6901 ± 0.0063 mPa·s, the viscosity (313.15 K, m1 = 0.15) was 0.6974 ± 0.0064 mPa·s and the viscosity (313.15 K, m1 = 0.175) was 0.7047 ± 0.0064 mPa·s. The viscosity (313.15 K, m1 = 0.2) was 0.7119 ± 0.0065 mPa·s, the mass density (313.15 K, m1 = 0.025) was 993.32 ± 0.39 kg/m3 and the mass density (313.15 K, m1 = 0.05) was 994.38 ± 0.39 kg/m3. The mass density (313.15 K, m1 = 0.075) was 995.42 ± 0.39 kg/m3, the mass density (313.15 K, m1 = 0.0999) was 996.44 ± 0.39 kg/m3 and the mass density (313.15 K, m1 = 0.1249) was 997.44 ± 0.39 kg/m3. The mass density (313.15 K, m1 = 0.15) was 998.43 ± 0.39 kg/m3, the mass density (313.15 K, m1 = 0.175) was 999.4 ± 0.39 kg/m3 and the mass density (313.15 K, m1 = 0.2) was 1000.35 ± 0.39 kg/m3. The viscosity (318.15 K, m1 = 0.025) was 0.6044 ± 0.0057 mPa·s, the viscosity (318.15 K, m1 = 0.05) was 0.6121 ± 0.0057 mPa·s and the viscosity (318.15 K, m1 = 0.075) was 0.6196 ± 0.0058 mPa·s. It also gave a viscosity (318.15 K, m1 = 0.0999) of 0.6269 ± 0.0058 mPa·s, a viscosity (318.15 K, m1 = 0.1249) of 0.6341 ± 0.0059 mPa·s and a viscosity (318.15 K, m1 = 0.15) of 0.6413 ± 0.0059 mPa·s. For the same compound, the viscosity (318.15 K, m1 = 0.175) was 0.6485 ± 0.006 mPa·s, the viscosity (318.15 K, m1 = 0.2) was 0.6556 ± 0.006 mPa·s and the mass density (318.15 K, m1 = 0.025) was 991.32 ± 0.41 kg/m3. The mass density (318.15 K, m1 = 0.05) was 992.38 ± 0.41 kg/m3, the mass density (318.15 K, m1 = 0.075) was 993.42 ± 0.41 kg/m3 and the mass density (318.15 K, m1 = 0.0999) was 994.45 ± 0.41 kg/m3. The mass density (318.15 K, m1 = 0.1249) was 995.46 ± 0.41 kg/m3, the mass density (318.15 K, m1 = 0.15) was 996.45 ± 0.4 kg/m3 and the mass density (318.15 K, m1 = 0.175) was 997.43 ± 0.4 kg/m3. For the same compound, the mass density (318.15 K, m1 = 0.2) was 998.39 ± 0.4 kg/m3.
